Data on 25 compounds can be found in patent US20230183239A1, “ECTONUCLEOTIDE PYROPHOSPHATASE-PHOSPHODIESTERASE 1 (ENPP-1) INHIBITORS AND USES THEREOF” (AbbVie Inc., priority 2017, published 2023).

pKi: −log10 of the molar value.

In general, pKi refers to the Ki on a negative log10 scale, so that one unit is a factor of ten.

Holding throughout (format): biochemical
For assay [1], the target named is T1, ENPP1 (Homo sapiens, UniProt P22413).
T1 sequence (P22413 1-925): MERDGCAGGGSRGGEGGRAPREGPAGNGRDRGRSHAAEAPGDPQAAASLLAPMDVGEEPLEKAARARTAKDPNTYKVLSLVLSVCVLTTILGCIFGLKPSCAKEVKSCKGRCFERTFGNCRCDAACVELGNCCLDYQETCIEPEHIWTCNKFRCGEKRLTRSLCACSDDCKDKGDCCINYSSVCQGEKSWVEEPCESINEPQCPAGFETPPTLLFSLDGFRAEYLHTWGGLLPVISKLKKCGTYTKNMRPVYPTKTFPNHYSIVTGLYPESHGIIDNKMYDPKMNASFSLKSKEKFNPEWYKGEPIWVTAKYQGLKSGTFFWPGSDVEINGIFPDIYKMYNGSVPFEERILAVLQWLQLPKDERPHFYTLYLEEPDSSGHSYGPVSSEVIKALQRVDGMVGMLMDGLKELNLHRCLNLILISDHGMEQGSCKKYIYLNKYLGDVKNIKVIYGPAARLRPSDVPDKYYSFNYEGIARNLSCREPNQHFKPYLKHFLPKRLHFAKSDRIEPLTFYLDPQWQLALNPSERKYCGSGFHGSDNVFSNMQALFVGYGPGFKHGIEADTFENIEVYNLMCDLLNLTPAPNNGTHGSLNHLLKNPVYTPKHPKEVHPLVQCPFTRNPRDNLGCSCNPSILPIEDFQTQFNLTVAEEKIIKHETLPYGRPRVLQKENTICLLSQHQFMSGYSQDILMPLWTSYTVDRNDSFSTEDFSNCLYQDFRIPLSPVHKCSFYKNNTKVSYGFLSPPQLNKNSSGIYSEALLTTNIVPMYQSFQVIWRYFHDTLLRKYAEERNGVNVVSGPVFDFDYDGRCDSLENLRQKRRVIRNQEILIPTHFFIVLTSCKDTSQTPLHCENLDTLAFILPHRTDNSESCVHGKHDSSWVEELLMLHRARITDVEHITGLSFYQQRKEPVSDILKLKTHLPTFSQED
The experiment in a line: ENPP1 enzyme assay with AMP-pNP substrate (hydrolysis of ATP analog). The note with it: AMP-pNP substrate (ATP analog); Ki from IC50 by Cheng-Prusoff; read-out: ENPP1 Inhibition _AMP-pNP: Ki. A digest of the protocol:
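Reactions ran 20 min at 37 °C, pH 8.5 Tris buffer with NaCl, CaCl2, ZnCl2, using 300 µM AMP-pNP and 60 ng/well recombinant human ENPP1; inhibitor range 10 µM–30 pM, duplicates.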

The target of assay [2] is T1, ENPP1. Description: Indirect quantitation of 2',3'-cGAMP hydrolysis (AMP-Glo Assay kit). The following applies: cGAMP substrate; Ki from IC50 by Cheng-Prusoff; read-out: ENPP1 Inhibition -cGAMP: Ki.
In assay [3] the target is T1, ENPP1. The experiment in a line: Substrate selectivity ratio, inhibition of cGAMP hydrolysis versus ATP hydrolysis. The following applies: ratio Ki AMP-pNP / Ki cGAMP. The protocol:
The selectivity ratios for inhibition of cGAMP hydrolysis versus ATP hydrolysis were then calculated as follows: […]

For the compound `COc1cc2ncnc(NC(C)c3ccc(NS(N)(=O)=O)cc3)c2cc1F` (stereo not drawn) [Example 236, N-(4-(1-((6-fluoro-7-methoxyquinazolin-4-yl)amino)ethyl)phenyl)sulfamide], the values for the pKi on ENPP1 [1] and at ENPP1 [2] were 6.00 to 7.00 and over 7.00, respectively. Also, the “Substrate Selectivity: Ki_AMP-pNP/Ki_cGAMP” value (shortened to “Substrate Selectivity”) on ENPP1 [3] turned out to be 109.
The matching figures for `COc1ccc2ncc(C#N)c(-c3ccc4c(c3)CN(S(N)(=O)=O)CC4)c2c1` [Example 237, 7-(3-cyano-6-methoxyquinolin-4-yl)-3,4-dihydroisoquinoline-2(1H)-sulfonamide]: under 6.00, over 7.00 and over 371.
The matching figures for `COc1ccc2ncc(C#N)c(N3CCC4(CC3)CCN(S(N)(=O)=O)C4)c2c1` [Example 238, 8-(3-cyano-6-methoxyquinolin-4-yl)-2,8-diazaspiro[4.5]decane-2-sulfonamide]: 6.00 to 7.00, over 7.00 and over 99.7.
Turning to `COc1cc2nccc(-c3ccc(CNS(N)(=O)=O)cc3)c2cc1F` [Example 239, N-(4-(6-fluoro-7-methoxyquinolin-4-yl)benzyl)sulfamide], the negative-log Ki (pKi) is 6.00 to 7.00 on ENPP1 [1] and over 7.00 at ENPP1 [2]. For the same compound, on ENPP1 [3], the “Substrate Selectivity” value came out at 62.
The matching figures for `COc1ccc2ncc(C#N)c(-c3ccc(CNS(N)(=O)=O)cc3)c2c1` [Example 240, N-(4-(3-cyano-6-methoxyquinolin-4-yl)benzyl)sulfamide]: under 6.00, over 7.00 and over 81.3.
The matching figures for `COc1cc2ncc(C#N)c(-c3ccc(CNS(N)(=O)=O)cc3)c2cc1OC` [Example 241, N-(4-(3-cyano-6,7-dimethoxyquinolin-4-yl)benzyl)sulfamide]: 6.00 to 7.00, over 7.00 and 49.0.
For `NS(=O)(=O)Nc1ccc(Nc2ncnc3ncccc23)cc1` [Example 242, N-(4-(pyrido[2,3-d]pyrimidin-4-ylamino)phenyl)sulfamide] the same measures were under 6.00, 6.00 to 7.00 and over 82.4.
With `COc1ccc2c(-c3ccc(CNS(N)(=O)=O)cc3)c(C#N)cnc2c1` [Example 244, N-(4-(3-cyano-7-methoxyquinolin-4-yl)benzyl)sulfamide], the figures for the pKi at ENPP1 [1] and on ENPP1 [2] were 6.00 to 7.00 and over 7.00, respectively. Besides, the “Substrate Selectivity” value on ENPP1 [3] amounted to 53.0.
The matching figures for `COc1cc2ncc(C#N)c(N3CCC(CCNS(N)(=O)=O)CC3)c2cn1` [Example 245, N-(2-(1-(3-cyano-7-methoxy-1,6-naphthyridin-4-yl)piperidin-4-yl)ethyl)sulfamide]: under 6.00, 6.00 to 7.00 and over 92.6.
The matching figures for `COc1cc2ncnc(NC(c3ccc(NS(N)(=O)=O)cc3)C3CC3)c2cc1OC` (stereo not drawn) [Example 246, N-(4-(cyclopropyl((6,7-dimethoxyquinazolin-4-yl)amino)methyl)phenyl)sulfamide]: under 6.00, over 7.00 and over 87.7.
For `COc1cc2c(NCc3ccc(S(N)(=O)=O)cc3)ncnc2cn1` [Example 247, 4-(((6-methoxypyrido[3,4-d]pyrimidin-4-yl)amino)methyl)benzenesulfonamide] the same measures were under 6.00, 6.00 to 7.00 and 67.3.
On to `COc1ccc2c(N3CCC4(CC3)CCN(S(N)(=O)=O)C4)c(C#N)cnc2c1` [Example 248, 8-(3-cyano-7-methoxyquinolin-4-yl)-2,8-diazaspiro[4.5]decane-2-sulfonamide], for which the negative logarithm of the Ki (pKi) on ENPP1 [1] and at ENPP1 [2] was over 7.00 in each case. On ENPP1 [3], the “Substrate Selectivity” value turned out to be 48.6.
In the case of `NS(=O)(=O)N1CCC2(CCN(c3ncnc4cc(F)ccc34)CC2)C1` [Example 250, 8-(7-fluoroquinazolin-4-yl)-2,8-diazaspiro [4.5] decane-2-sulfonamide], the pKi at ENPP1 [1] is under 6.00; at ENPP1 [2], over 7.00. The “Substrate Selectivity” value on ENPP1 [3] is listed as over 89.3.
For `COc1cc2c(N3CCC4(CC3)CCN(S(N)(=O)=O)C4)c(C#N)cnc2cn1` [Example 256, 8-(3-cyano-6-methoxy-1,7-naphthyridin-4-yl)-2,8-diazaspiro [4.5] decane-2-sulfonamide] the same measures were under 6.00, over 7.00 and over 118.
The matching figures for `COc1cc2nccc(Oc3cc(F)c(NS(N)(=O)=O)cc3F)c2cc1OC` [Example 258, N-(4-((6,7-dimethoxyquinolin-4-yl)oxy)-2,5-difluorophenyl)sulfamide]: under 6.00, over 7.00 and over 48.1.
For `COc1cc2ncnc(NCc3ccc(S(N)(=O)=O)cc3)c2cc1F` [Example 259, 4-(((6-fluoro-7-methoxyquinazolin-4-yl)amino)methyl)benzenesulfonamide] the same measures were over 7.00, over 7.00 and 41.6.
As to `COc1cc2ncc(-c3ccc4c(c3)CN(S(N)(=O)=O)CC4)c(Cl)c2cc1OC` [Example 260, 7-(4-chloro-6,7-dimethoxyquinolin-3-yl)-3,4-dihydroisoquinoline-2(1H)-sulfonamide], the pKi at ENPP1 [1] and at ENPP1 [2] was over 7.00 in each case. Moreover, the “Substrate Selectivity” value at ENPP1 [3] is listed as 21.5.
For the compound `COc1cc2nccc(Oc3ccc(NS(=O)(=O)C4CCC4)cc3)c2cc1OC` [Example 261, N-(4-((6,7-dimethoxyquinolin-4-yl)oxy)phenyl)cyclobutanesulfonamide], the figures for the pKi at ENPP1 [1] and at ENPP1 [2] were under 6.00 and 6.00 to 7.00, respectively. In addition, the “Substrate Selectivity” value at ENPP1 [3] is given as over 12.9.
For `N#Cc1cnc2cc(OC(F)F)ccc2c1-c1ccc2c(c1)CN(S(N)(=O)=O)CC2` [Example 262, 7-(3-cyano-7-(difluoromethoxy)quinolin-4-yl)-3,4-dihydroisoquinoline-2(1H)-sulfonamide] the same measures were under 6.00, 6.00 to 7.00 and over 173.
For `COc1cc2nccc(Oc3ccc4c(c3)CNS(=O)(=O)N4)c2cc1OC` [Example 263, 6-((6,7-dimethoxyquinolin-4-yl)oxy)-3,4-dihydro-1H-benzo[c][1,2,6]thiadiazine 2,2-dioxide] the same measures were under 6.00, 6.00 to 7.00 and over 61.9.
The matching figures for `COc1ccc2ncnc(-c3ccc(CNS(N)(=O)=O)cc3)c2c1` [Example 264, N-(4-(6-methoxyquinazolin-4-yl)benzyl)sulfamide]: under 6.00, 6.00 to 7.00 and over 28.0.
`NS(=O)(=O)N1CCC2(CCN(c3ccnc4cc(OC(F)F)ccc34)CC2)C1` [Example 265, 8-(7-(difluoromethoxy)quinolin-4-yl)-2,8-diazaspiro[4.5]decane-2-sulfonamide]: the pKi was under 6.00 at ENPP1 [1] and 6.00 to 7.00 on ENPP1 [2]. For the same compound, at ENPP1 [3], the “Substrate Selectivity” value is recorded as over 13.0.
The matching figures for `COc1cc2ncc(-c3ccc(CNS(N)(=O)=O)cc3)n2cc1OC` [Example 266, N-(4-(6,7-dimethoxyimidazo[1,2-a]pyridin-3-yl)benzyl)sulfamide]: 6.00 to 7.00, over 7.00 and over 5.9.
Take `COc1ccc2c(NCc3ccc(NS(N)(=O)=O)cc3)ccnc2c1` [Example 267, N-(4-(((7-methoxyquinolin-4-yl)amino)methyl)phenyl)sulfamide]: the pKi on ENPP1 [1] was 6.00 to 7.00; on ENPP1 [2], over 7.00. Also, the “Substrate Selectivity” value on ENPP1 [3] is 22.5.
The matching figures for `COc1ccc2c(Nc3ccc(NS(N)(=O)=O)cc3)ccnc2c1F` [Example 269, N-(4-((8-fluoro-7-methoxyquinolin-4-yl)amino)phenyl)sulfamide]: 6.00 to 7.00, over 7.00 and over 7.1.
